Earlier results as cited in patent EP3568126B1, “[…] COMPOSITION” (Torrent Pharmaceuticals Limited, priority 2017, dated 2018).

## 3-[(1R,2R)-3-(dimethylamino)-1-ethyl-2-methylpropyl]phenol [tapentadol]
After oral dosing
  time of maximum serum concentration: around 1.25 hours
Oral administration
  administered tapentadol metabolized (first-pass metabolism): about 97%
  bioavailability: 32%
Oral formulations
  time after administration at which absorption occurs: at least 45 minutes
